According to paper PMC11306511, “Combining VPS34 inhibitors with STING agonists enhances type I interferon signaling and anti‐tumor efficacy” (Molecular Oncology, 2024):

Tests used:
In vivo mouse PK = assay: In vivo mouse PK
Experimental: Experiments were conducted at Aragen Life Sciences Ltd. (Hyderabad, India) according to internal standard procedures.

[1] = PK profiling in H1299-GFP-2xFYVE tumor-bearing mice (plasma and tumor); type: in vivo, mouse
Experimental: (§1) The study was performed by Truly Translational AB (Lund, Sweden) following Swedish legislations and approved by the ethical committee Malmö/Lunds djurförsöksetiska nämnd (M120‐15). Animals were housed 5/cage in polysulfone IVC cages at a constant temperature with 12 h light‐dark cycles and free access to food, tap water, and cage enrichment. Animals were allowed to acclimatize to the housing conditions for at least a week before the start of experiments. Female 8‐week‐old NOD.Cg‐Prkdc^ scid Il2rg^ tm1Sug /JicTac (CIEA‐NOG®) mice (supplied by Taconic Biosciences, Rensselaer, NY, USA; n = 42) were implanted subcutaneously with 1.75 × 10^6 H1299‐GFP2xFYVE cells in serum‐free RPMI in 50% Matrigel. When tumors reached 300–400 mm^3 mice were randomized and dosed with 9 or 29 mg·kg^−1 SB02024 or vehicle (PEG 200 (98%)/Polysorbate (2%)). At indicated time points after dosing, blood samples were taken by heart puncture and tumors were removed. Pharmacokinetic (PK) analysis (plasma and tumor samples) was performed by Q&Q Labs (Gothenburg, Sweden). Plasma was precipitated with acetonitrile, and after centrifugation, the soluble material was recovered. Tumor of 50–150 mg was homogenized mechanically in the presence of 5× acetonitrile relative to tissue weight using Precellys Tissue Homogenizer (Bertin Technologies, Montigny‐le‐Bretonneux, France). Samples were centrifuged and soluble material was kept for further analysis. SB02024 levels were determined using UHPLC‐QQQ: Agilent 6460 (LC–MS/MS; Agilent Technologies, Santa Clara, CA, USA). Pharmacodynamic (PD) analysis of GFP2xFYVE punctae was performed by Offspring Biosciences (Södertalje, Sweden). H1299‐GFP2xFYVE tumors were fixed by immersion in 4% formalin in PBS for 72 h at 4 °C, sampled randomly by six biopsies (diameter 1 mm), and reassembled into three separate tumor microarrays (TMAs). Each TMA block was sectioned and analyzed at eight equally spaced levels. The immunohistochemical staining was performed using the Ventana Discovery XT protocol. […]

VPS34 activity = assay: PD: GFP-2xFYVE puncta in H1299 tumors (immunohistochemistry); type: in vivo, mouse; conditions: 9 or 29 mg·kg^−1 oral
Experimental: as §1, with “Tumor of 50–150 mg was homogenized mechanically in the presence of 5× acetonitrile relative to tissue weight using Precellys Tissue Homogenizer (Bertin Technologies, Montigny‐le‐Bretonneux, France). Samples were centrifuged and soluble material was kept for further analysis.” left out, “Pharmacodynamic (PD) analysis of GFP2xFYVE punctae was performed by Offspring Biosciences (Södertalje, Sweden). H1299‐GFP2xFYVE tumors were fixed by immersion in 4% formalin in PBS for 72 h at 4 °C, sampled randomly by six biopsies (diameter 1 mm), and reassembled into three separate tumor microarrays (TMAs).” left out, “levels.” for “levels. The immunohistochemical staining was performed using the Ventana Discovery XT protocol.”

CCL5 and CXCL10 = assay: Plasma CCL5/CXCL10 in Renca tumor-bearing mice (Mesoscale Discovery); type: in vivo, mouse; conditions: Renca tumor-bearing BALB/c mice, 20 mg·kg^−1 oral daily, vs vehicle
Description: Study protocols were approved by the Institutional Animal Care and Use Committee of CrownBio in China (AN‐1903‐05‐313) or the LIH's animal welfare committee in Luxembourg (agreement LECR‐2018‐12). Mice were handled according to European Union guidelines, adhering to the principles of replacement, reduction, and refinement (3Rs). Animals were housed in appropriate accommodations conducive to their well‐being, with provisions for housing, feeding, and environmental enrichment to meet their physical and behavioral needs. Highly skilled personnel were involved in carrying out procedures related to the animal experiments to ensure proper care and handling. […] Tumor growth was measured using a caliper every other day and estimated as follows: volume (cm^3) = (width)^2 × length × 0.5.
Cell culture medium was centrifuged at 300 g for 10 min at 4 °C and supernatant stored at −80 °C. […] Cytokine levels were quantified using Mesoscale Discovery (MSD) assays: human CCL5 (#F21ZN), CXCL10 (#K151UFK), IFNβ (#K151VIK); mouse CCL5 (#K152A2K) and CXCL10 (#K152UFK). Low concentrations of human IFNβ were determined using High‐Sensitivity IFNβ ELISA (#41415‐1; PBL Assay Science, Piscataway, NJ, USA). CCL5/CXCL10 levels in some experiments were quantified using R&D Systems (Minneapolis, MN, USA) ELISAs: human CCL5 (#DY278) or CXCL10 (#DY266); mouse CCL5 (#DY478).

Renca tumors = assay: NanoString gene expression and network enrichment analysis of Renca tumors; type: in vivo, mouse
Description: (§2) Study protocols were approved by the Institutional Animal Care and Use Committee of CrownBio in China (AN‐1903‐05‐313) or the LIH's animal welfare committee in Luxembourg (agreement LECR‐2018‐12). Mice were handled according to European Union guidelines, adhering to the principles of replacement, reduction, and refinement (3Rs). Animals were housed in appropriate accommodations conducive to their well‐being, with provisions for housing, feeding, and environmental enrichment to meet their physical and behavioral needs. Highly skilled personnel were involved in carrying out procedures related to the animal experiments to ensure proper care and handling. Female 6 to 8‐week‐old BALB/c (supplied by Shanghai Lingchang Biotechnology Co., Shanghai, China; n = 14) or C57BL/6 mice (supplied by Janvier Labs, Le Genest‐Saint‐Isle, France; n = 40) were injected into the right flank with 1 × 10^6 Renca or 0.2 × 10^6 B16‐F10 cells, respectively, resuspended in 100 μL PBS (day 0). When tumors were palpable (day 9 for Renca, day 7 for B16‐F10 tumors), mice were randomly assigned into two groups for the Renca model with n = 6 (vehicle) and n = 8 (SB02024) or four groups for the B16‐F10 model with n = 10. Daily treatment with 20 mg·kg^−1 SB02024 or vehicle (0.5% methylcellulose in water supplemented with 1% Tween‐80) was administered by oral gavage (day 9–16 for Renca, day 7–16 for B16‐F10 model). For combination studies, ADU‐S100 (10 μg in 40–50 μL PBS) or vehicle (PBS) treatment was administered by intratumoral injection (days 9, 11, 13, and 15). Tumor growth was measured using a caliper every other day and estimated as follows: volume (cm^3) = (width)^2 × length × 0.5.
Renca tumor RNA was isolated using the Rneasy Plus kit (#74134; Qiagen, Venlo, the Netherlands), quantified using a NanoDrop spectrophotometer (Thermo Fisher), and 100 ng was used as input for the nCounter PanCancer IO 360 mouse panel (NanoString Technologies, Seattle, WA, USA). Data were analyzed by NanoString's data analysis service. Network enrichment analysis (NEA) was carried out by Evi‐networks, Sweden (see detailed description in Table S2).

A-498 cells = assay: IFN/cytokine gene expression (qRT-PCR) and secretion (MSD) in A-498 cells; type: cell-based, human; conditions: 2 μM, 24 h, vs DMSO
Experimental: (§3) RNA was isolated using the PureLink kit (#12183018A; Thermo Fisher) and DNA‐binding columns (Rneasy plus kit, #74134; Qiagen) and/or Dnase treatment (#12185010; Thermo Fisher). After quantification using NanoDrop, 50 ng·μL^−1 RNA was used for cDNA synthesis with SuperScript IV VILO Master Mix (#11756050; Thermo Fisher). Quantitative RT‐PCR was run with diluted cDNA (1 : 25 or 1 : 12.5), PowerUp SYBR Green Master Mix (#A25741; Thermo Fisher), and 200 nM primers (see Table S3) on a CFX Connect RT‐PCR system (BioRad, Hercules, CA, USA). Data were analyzed using the ΔΔCT method.
(§4) Cell culture medium was centrifuged at 300 g for 10 min at 4 °C and supernatant stored at −80 °C. Mouse blood was collected at termination in K2‐EDTA tubes on ice, centrifuged at 1270 g for 10 min at 4 °C, and plasma was stored at −80 °C. Cytokine levels were quantified using Mesoscale Discovery (MSD) assays: human CCL5 (#F21ZN), CXCL10 (#K151UFK), IFNβ (#K151VIK); mouse CCL5 (#K152A2K) and CXCL10 (#K152UFK). Low concentrations of human IFNβ were determined using High‐Sensitivity IFNβ ELISA (#41415‐1; PBL Assay Science, Piscataway, NJ, USA). CCL5/CXCL10 levels in some experiments were quantified using R&D Systems (Minneapolis, MN, USA) ELISAs: human CCL5 (#DY278) or CXCL10 (#DY266); mouse CCL5 (#DY478).

B16-F10 cells = assay: IFN/cytokine gene expression (qRT-PCR) and secretion (MSD) in B16-F10 cells; type: cell-based, murine; conditions: 2 μM, 24 h, vs DMSO
Experimental: as §3, §4

Me30966 cells = assay: Gene expression (qRT-PCR) in Me30966 cells; type: cell-based, human; conditions: 2 μM, 24 h, vs DMSO
Experimental: (A) IFNB1 gene expression quantified by qRT-PCR after 24h treatment with DMSO control or 2 µM of VPS34 inhibitor
(=VPS34i, SB02024 or SAR405) in Me30966 cells.

B16-F10 tumors = assay: Tumor growth inhibition study, B16-F10 tumor-bearing mice; type: in vivo, mouse; conditions: B16-F10 in C57BL/6 mice; SB02024 20 mg·kg^−1 oral daily day 7-16; ADU-S100 10 μg intratumoral days 9, 11, 13, 15
Description: as §2, with “Daily treatment with 20 mg·kg^−1 SB02024 or vehicle (0.5% methylcellulose in water supplemented with 1% Tween‐80) was administered by oral gavage (day 9–16 for Renca, day 7–16 for B16‐F10 model). For combination studies, ADU‐S100 (10 μg in 40–50 μL PBS) or vehicle (PBS) treatment was administered by intratumoral injection (days 9, 11, 13, and 15).” left out

[2] = 20 mg·kg^−1, NanoString, vs vehicle

C[C@@H]1COCCN1c1cc(N2CCCC[C@@H]2C(F)(F)F)[nH]c(=O)c1 [SB02024]
half-life (In vivo mouse PK; in vivo mouse PK, read-out: t½ (converted)): 1.15 h | in vitro and in vivo clearance (in words) (In vivo mouse PK; mouse, in vivo): low | bioavailability (In vivo mouse PK; po, in vivo mouse PK): 96% | Cmax ([1]; female, NOD.Cg-Prkdc scid Il2rg tm1Sug/JicTac (CIEA-NOG), mouse, oral 29 mg·kg^−1, plasma and tumor, H1299-GFP-2xFYVE tumor-bearing CIEA NOG mice): ~10 µM | half-life ([1]; female, NOD.Cg-Prkdc scid Il2rg tm1Sug/JicTac (CIEA-NOG), mouse, oral 29 mg·kg^−1, tumor and plasma concentrations): 2.5 h | time of Cmax ([1]; oral 29 mg·kg^−1, plasma and tumor): 2 h | duration of inhibition of GFP-2xFYVE puncta formation (VPS34 activity): about 8 h | GFP-2xFYVE puncta (autophagosome and endosome) formation in H1299 tumors (VPS34 activity; after 2 h): inhibited | CCL5 and CXCL10 in blood plasma (CCL5 and CXCL10): significant increase | Ptprc gene expression (CD45+ cells) in Renca tumors (Renca tumors; [2]): significantly increased | gene signatures for cytotoxic cells, T cells, total and CD56dim NK cells, macrophages, neutrophils (Renca tumors; [2]): significant increase | Reactome gene signature for STING-mediated signaling, enrichment (Renca tumors; NEA, r-mmu-3134975 as printed, treated tumors vs vehicle controls): enrichment | STAT1 and IFN gene signature for ICB sensitivity (Zemek et al.), enrichment (Renca tumors; NEA, treated tumors vs vehicle controls): significantly enriched | transcription of IFNB1 and ISGs IRF1, IRF7, IRF9 (A-498 cells): significantly increased | transcription of IFNB1 and ISGs IRF1, IRF7, IRF9 (B16-F10 cells): significantly increased | IFNB1 expression (Me30966 cells): significantly increased | % TGI (percent tumor growth inhibition compared to vehicle control) (B16-F10 tumors): 27%
